Assay results: US20230358769A1, “CLOT […] FOR QUALITY MONITORING OF PLATELET PRODUCTS” (THE GOVERNMENT OF THE UNITED STATES AS REPRESENTED BY THE …, priority 2022, published 2023)
Where a SMILES comes first, the peptide text is derived from it. Bridges are numbered along the chain shown (N, C = ends). [ ]: non-standard residue; d: D form. hArg = N=C(N)NCCCC[C@H](N)C(=O)O; Mpa = O=C(O)CCS

Assays:
[1] = test system: platelets in platelet rich plasma (PRP); assay: Microplate clot retraction method (thrombin-activated platelet rich plasma, O.D. 350 nm kinetics); type: cell-based, human; conditions: for clot densification phase (phase 3) of the reaction kinetic curve: at the highest levels of inhibition
Experimental: Whole blood was collected in acid citrate dextrose tubes (ACD-A; BD Vacutainer, Franklin Lakes NJ) from healthy volunteers in accordance with a U.S. Army Research and Development Command approved protocol (USAISR L-20-003). Whole blood was centrifuged at 200×g for 10 minutes and platelet rich plasma (PRP) was obtained from the upper layer. Platelet poor plasma (PPP) was recovered from the remaining volume of the ACD-A tube after centrifugation at 3,000 times gravity (×g) for 10 minutes. To obtain apheresis platelets, the Trima Accel 7 (Terumo, Lakewood, CO) system was used for collection in either autologous plasma or Isoplate (65% Isoplate, 35% plasma). Platelet concentrations were determined on an Advia® 2120i (Siemens, Malvern, PA) and adjusted to 250,000 platelets/μL with autologous PPP, unless indicated otherwise.
Individual wells of a 96-well polystyrene microplate were coated with 150 μL of anti-adherence rinse solution (Stem Cell Technologies, Vancouver, Canada) and the microplate was centrifuged for 10 minutes at 1.300×g. The anti-adherence coating solution was aspirated and the coated wells were washed once with phosphate buffered saline. After washing, one side of each coated well was scored with an 18 Gauge (Ga) needle. Five μL of 30 U/ml thrombin (Haematologic Technologies, East Junction, VT) were added to each coated and scored well to initiate platelet aggregation, clot formation, and subsequent clot retraction.
PRP was supplemented with 6 mM CaCl2 (Sigma, St. Louis, MO) before aliquoting 180 μL to wells that were adjacent to the thrombin-containing (reaction) wells. The transfer of PRP to adjacent (staging) wells allowed for simultaneous transfer of multiple samples to the reaction wells using a multichannel pipette. The microplate was then loaded into a Synergy™ Neo2 microplate reader, and 145 μL of re-calcified PRP were transferred from the staging well to the reaction well. The plate scan was immediately started after addition of PRP. The plate scan protocol consisted of: temperature=37° C., assay duration=30 minutes, read interval=5 seconds, kinetic absorbance wavelength=350 nm, well scan absorbance wavelength=350 nm. After the plate scan protocol was completed, the plate was discarded and the data were exported as text files.
When indicated, the concentrations of platelets, CaCl2, or thrombin were varied to identify the optimal assay conditions for clot retraction. Additionally, PRP was pre-treated with increasing concentrations of inhibitors to platelet integrin αIIbβ3 (Eptifibatide, Sigma, St. Louis, MO), platelet-fibrin interaction (RGDS, Cayman Chemical, Ann Arbor, MI), and Src-family kinase (PP2, Sigma). Vehicle controls were the solvent used for the respective compound. Each treatment was performed in at least duplicate technical replicates.
Text files containing the optical density (O.D.) values were imported into R v4.0.5. Parameters of Rate of Clot Formation, Rate of Clot Retraction, Maximum O.D., Retraction Coefficient, Time to Maximum O.D., and Retraction Time were derived for each sample. Algorithms to extract parameters are described in Table 2, below.
Briefly, for Rates of Clot Formation and Retraction, a sliding window procedure was used to fit a linear model to a subset of 20 consecutive data points (k=20). The slope coefficient was extracted from each linear model and stored in an array. The Rates of Clot Formation and Retraction were defined as the maximum and minimum values, respectively, in the array. […] The data points represent donors and horizontal bars depicts medians. The Maximum and Minimum O.D. values were defined as the maximum and minimum readings, respectively. The Retraction Coefficient was defined as the difference between the Maximum and Minimum O.D. values, divided by the Maximum O.D. value. The Time to Maximum O.D. was defined as the time-point in which the Maximum O.D. value was observed. […]

[2] = test system: platelet rich plasma (PRP); assay: Clot retraction assay in 2% Tween coated wells (optimization of assay agonist); type: cell-based, human; conditions: 0.5, 1, 2 and 4 NIH units of thrombin, n=4
Experimental: Bottom halves of the individual wells in a 96-well plate were coated with 2% Tween and left in a vertical position inside a modified chamber for 90 minutes at room temperature. The coating solutions were then aspirated and allowed to air dry under the hood for 15 minutes. Whole blood collected in ACD tubes from healthy volunteers was subjected to centrifugation at 200×g for 10 minutes to obtain platelet rich plasma (PRP), followed by a second centrifugation at 3000×g for 10 minutes to obtain platelet poor plasma (PPP). When needed, platelet concentrations in the PRP were adjusted to desired levels using PPP. PRP samples (145 μL) were recalcified with 20 mM CaCl2 were then transferred into wells containing five μL of two NIH U/mLs of Thrombin. Further, the changes in absorbance during clot gelation and retraction were tracked at 350 nm using a microplate spectrophotometer for 90 minutes at 37° C.
To evaluate the appropriate thrombin concentration for the best outcome in the assay, we tested at 0.5, 1, 2 and 4 NIH units of thrombin (n=4). Once coagulation was initiated with thrombin, the clotting kinetics were characterized by a very short lag phase of initiation, a log phase of fibrin polymerization, a fibrin densification phase of platelet mediated fibrin remodeling, and a final rapid CR phase of declining absorbance. […]

In the case of `[Ca+2].[Cl-].[Cl-]` [CaCl2, Calcium chloride], the “clot formation and clot retraction at the highest CaCl2 levels” value ([1]; CaCl2 concentration varied, n=5, highest levels) is reported as “clot formation, but failure in clot retraction” and the “differences in parameters across CaCl2 concentrations” value ([1]; range of 0 to 6 mM CaCl2) is reported as “No differences”.
In the case of `N=C(N)NCCCC[C@@H]1NC(=O)CCSSC[C@@H](C(N)=O)NC(=O)[C@@H]2CCCN2C(=O)[C@H](Cc2c[nH]c3ccccc23)NC(=O)[C@H](CC(=O)O)NC(=O)CNC1=O` [Eptifibatide] ([Mpa][hArg]GDWPC-NH2; disulfide 1-7), the “clot densification phase (phase 3) of the reaction kinetic curve” value (from here on “clot densification phase”) [1] is reported as “absent or greatly diminished”.
With `CC(C)(C)n1nc(-c2ccc(Cl)cc2)c2c(N)ncnc21` [PP2] the “clot densification phase” value [1] was “absent or greatly diminished”.
For `C=C1[C@@H](C)[C@H]2[C@H](Cc3ccccc3)NC(=O)[C@]23[C@H](OC(C)=O)/C=C/[C@@](C)(O)C(=O)[C@@H](C)C/C=C/[C@H]3[C@@H]1O` [cytochalasin D], the “all parameters except Rate of Clot Formation and Maximum O.D., differences among treatment levels” value ([1]; cytochalasin D pretreatment, n=5, p<0.001) was “significant differences” and the “dose dependence of the differences among conditions” value ([1]; cytochalasin D pretreatment, greatest departure from vehicle at highest concentrations) was “followed the dosing level”.
For “Arg-Gly-Asp-Ser (RGDS; printed: Arg-Gly-Asp-Ser)”, the “clot densification phase” value [1] was “absent or greatly diminished”.
For thrombin, the “CR at 60 minutes after clot initiation” value [2] was 100% and the “effect of thrombin concentration on the method's results” value ([1]; thrombin concentration varied, n=5) was “significantly affected the method's results in a concentration dependent manner”.
